Each structure is given as a SMILES string. pEC50: −log10 of the molar value.

Experiment [1] concerns EGFR mutant L858R Ba/F3 cells. Nature of the experiment: Ba/F3 cell proliferation (Cell Titer Glo), EGFR L858R. The experiment is classed as cell-based, murine. Conditions: Mus musculus, BaF3, Ba/F3 cells with EGFR L858R, 72 hours exposure, read-out: L BaF3. The text has this: (§1) The selectivity between wild-type EGER and EGFR containing one or more mutations as described herein can also be measured using cellular proliferation assays where cell proliferation is dependent on kinase activity. For example, murine Ba/F3 cells transfected with a suitable version of wild-type EGFR (such as VIII; containing a WT EGFR kinase domain), or Ba/F3 cells transfected with L858R/T790M, Del/T790M/L718Q, L858R/T790M/L718Q, L858R/T790M/C797S, Del/T790M/C797S, L858R/T790M/I941R, or Exon 19 deletion/T790M can be used.
(§2) The EGFR mutant L858R Ba/F3 cells have been previously described (Zhou, W., et al. Nature 482, 2009, 1070-1074). […]
(§3) Growth and inhibition of growth was assessed by the Cell Titer Glo assay (Promega, Madison, WI) and was performed according to the manufacturer's instructions. The Cell Titer Glo assay is a luminescence-based method used to determine the number of viable cells based on quantitation of the ATP present, which is directly proportional to the amount of metabolically active cells present. Ba/F3 cells of different EGFR genotypes were exposed to compounds for 72 hours and the number of cells used per experiment was determined empirically as has been previously established (Zhou, et al., Nature 2009). […]

The subject of experiment [2] is EGFR L858R/C797S Ba/F3 cells. Nature of the experiment: Ba/F3 cell proliferation (Cell Titer Glo), EGFR L858R/C797S. Particulars: Mus musculus, BaF3, Ba/F3 cells with EGFR L858R/C797S, 72 hours exposure, read-out: L/C797S. The experiment is classed as cell-based, murine.
Text: as §1, §2, §3
(In ATP-based viability assays light output follows the ATP content of the culture.)

As for `C=CC(=O)Nc1csc(C(=O)Nc2nc3cccc(C)c3n2[C@@H]2CCCCN(C(C)=O)C2)c1` [Compound 009], the pEC50 is 7.21 in experiment [1] and 6.76 in experiment [2].

On to `C=CC(=O)Nc1cc(C(=O)Nc2nc3cccc(C)c3n2[C@@H]2CCCCN(C(C)=O)C2)cs1` [Compound 002], for which the values for the pEC50 in experiment [1] and in experiment [2] were 6.96 and 6.37, respectively.
